Consider 1 compound from patent publication US8153821B2, “Compounds” (priority 2008, dated 2012).

Like-named read-outs stand apart in the source and are kept apart here.

For one data set, the target named is Pgp brain pump (Homo sapiens, UniProt P08183). It is filed as in vitro ADME. The conditions noted are these: not told.
Another data set concerns the target T1, hERG (Homo sapiens, UniProt Q12809).
T1 construct: expressed in transfected cells; host or cells: HEK-239 (so in the source)
The data set is described as follows: cell-based.

The target of data set [1] is T2, rat native α4β2 receptors (Rattus norvegicus, UniProt P09483+P12390).
T2 construct: rat native α4β2 receptors in rat cortical membranes; from tissue; host or cells: rat cerebral cortex (female Sprague-Dawley)
Put plainly: Radioligand binding, rat native α4β2 in rat cortical membranes. The procedure:
Preparation of membranes from rat cortex: Rats (female, Sprague-Dawley), weighing 150-250 g, were maintained on a 12 h light/dark cycle and were allowed free access to water and food supplied by PMI Nutrition International, Inc. Animals were anesthetized with 70% CO2, and then decapitated. Brains were removed and placed on an ice-cold platform. The cerebral cortex was removed and placed in 20 volumes (weight:volume) of ice-cold preparative buffer (137 mM NaCl, 10.7 mM KCl, 5.8 mM KH2PO4, 8 mM Na2HPO4, 20 mM HEPES (free acid), 5 mM iodoacetamide, 1.6 mM EDTA, pH 7.4); PMSF, dissolved in methanol to a final concentration of 100 μM, was added and the suspension was homogenized by Polytron. […]
Assay. […] Protein concentrations were determined using a Pierce BCA Protein Assay Kit, with bovine serum albumin as the standard (Pierce Chemical Company, Rockford, Ill.).
Incubation was terminated by rapid filtration on a multi-manifold tissue harvester (Brandel, Gaithersburg, Md.) using GF/B filters presoaked in 0.33% polyethyleneimine (w/v) to reduce non-specific binding. […] Filters were then counted to determine radioactivity bound to the membranes by liquid scintillation counting (2200CA Tri-Carb LSC, Packard Instruments, 50% efficiency or Wallac Trilux 1450 MicroBeta, 40% efficiency, Perkin Elmer).
Data were expressed as disintegrations per minute (DPMs). […]

Data set [2] is classed as physicochemical. The text has this:
One aspect of the present invention relates to novel salt forms of (R)-3-((E)-2-(pyrrolidin-3-yl)vinyl)-5-(tetrahydropyran-4-yloxy)pyridine. […] However, the free base may react with both inorganic and organic acids to make acid addition salts that have physical properties that are advantageous for the preparation of pharmaceutical compositions such as crystallinity, water solubility, and stability toward chemical degradation.

The next data set has as its target T3, rat native α7 receptors (Rattus norvegicus, UniProt Q05941).
T3 construct: rat native α7 receptors in rat hippocampal membranes; from tissue; host or cells: rat hippocampus (female Sprague-Dawley)
The data set is described as follows: [3H]MLA binding, rat hippocampal membranes. The procedure: Rats (female, Sprague-Dawley), weighing 150-250 g, were maintained on a 12 h light/dark cycle and were allowed free access to water and food supplied by PMI Nutrition International, Inc. Animals were anesthetized with 70% CO2, and then decapitated. Brains were removed and placed on an ice-cold platform. The hippocampus was removed and placed in 10 volumes (weight:volume) of ice-cold preparative buffer (137 mM NaCl, 10.7 mM KCl, 5.8 mM KH2PO4, 8 mM Na2HPO4, 20 mM HEPES (free acid), 5 mM iodoacetamide, 1.6 mM EDTA, pH 7.4); PMSF, dissolved in methanol to a final concentration of 100 μM, was added and the tissue suspension was homogenized by Polytron. […] Protein was determined by the method of Lowry et al., J. Biol. Chem. 193: 265 (1951), using bovine serum albumin as the standard.
The binding of [^3H]MLA was measured using a modification of the methods of Davies et al., Neuropharmacol. […] The binding of [^3H]MLA was determined using a 2 h incubation at 21° C. […] Non-specific binding was determined by inclusion of 50 μM non-radioactive MLA in selected wells.
The inhibition of [^3H]MLA binding by test compounds was determined by including seven different concentrations of the test compound in selected wells. […] Inhibition constants (Ki values), reported in nM, were calculated from the IC50 values using the method of Cheng et al., Biochem. Pharmacol. 22: 3099-3108 (1973).

Data set [3] has as its target T4, human native ganglion-type nicotinic receptors (likely α3β4) (Homo sapiens, UniProt P30926+P32297).
T4 construct: human native ganglion-type nicotinic receptors (likely α3β4); endogenous in cells; host or cells: SH-SY5Y
Put plainly: [3H]epibatidine binding, SH-SY5Y membranes.

T3 sequence (Q05941 23-502): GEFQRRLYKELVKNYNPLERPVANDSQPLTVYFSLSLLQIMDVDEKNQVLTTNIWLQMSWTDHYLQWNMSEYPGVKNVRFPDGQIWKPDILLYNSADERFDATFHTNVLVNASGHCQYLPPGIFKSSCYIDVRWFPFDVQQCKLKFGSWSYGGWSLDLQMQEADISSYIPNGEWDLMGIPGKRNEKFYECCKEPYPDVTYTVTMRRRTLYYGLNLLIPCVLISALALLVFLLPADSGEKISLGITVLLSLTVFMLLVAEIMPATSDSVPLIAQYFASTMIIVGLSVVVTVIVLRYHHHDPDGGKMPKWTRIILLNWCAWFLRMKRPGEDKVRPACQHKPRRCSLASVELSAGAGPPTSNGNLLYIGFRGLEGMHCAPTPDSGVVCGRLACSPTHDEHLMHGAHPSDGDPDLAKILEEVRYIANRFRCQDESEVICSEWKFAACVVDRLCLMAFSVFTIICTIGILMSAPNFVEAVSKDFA
T1 sequence (Q12809 whole entry): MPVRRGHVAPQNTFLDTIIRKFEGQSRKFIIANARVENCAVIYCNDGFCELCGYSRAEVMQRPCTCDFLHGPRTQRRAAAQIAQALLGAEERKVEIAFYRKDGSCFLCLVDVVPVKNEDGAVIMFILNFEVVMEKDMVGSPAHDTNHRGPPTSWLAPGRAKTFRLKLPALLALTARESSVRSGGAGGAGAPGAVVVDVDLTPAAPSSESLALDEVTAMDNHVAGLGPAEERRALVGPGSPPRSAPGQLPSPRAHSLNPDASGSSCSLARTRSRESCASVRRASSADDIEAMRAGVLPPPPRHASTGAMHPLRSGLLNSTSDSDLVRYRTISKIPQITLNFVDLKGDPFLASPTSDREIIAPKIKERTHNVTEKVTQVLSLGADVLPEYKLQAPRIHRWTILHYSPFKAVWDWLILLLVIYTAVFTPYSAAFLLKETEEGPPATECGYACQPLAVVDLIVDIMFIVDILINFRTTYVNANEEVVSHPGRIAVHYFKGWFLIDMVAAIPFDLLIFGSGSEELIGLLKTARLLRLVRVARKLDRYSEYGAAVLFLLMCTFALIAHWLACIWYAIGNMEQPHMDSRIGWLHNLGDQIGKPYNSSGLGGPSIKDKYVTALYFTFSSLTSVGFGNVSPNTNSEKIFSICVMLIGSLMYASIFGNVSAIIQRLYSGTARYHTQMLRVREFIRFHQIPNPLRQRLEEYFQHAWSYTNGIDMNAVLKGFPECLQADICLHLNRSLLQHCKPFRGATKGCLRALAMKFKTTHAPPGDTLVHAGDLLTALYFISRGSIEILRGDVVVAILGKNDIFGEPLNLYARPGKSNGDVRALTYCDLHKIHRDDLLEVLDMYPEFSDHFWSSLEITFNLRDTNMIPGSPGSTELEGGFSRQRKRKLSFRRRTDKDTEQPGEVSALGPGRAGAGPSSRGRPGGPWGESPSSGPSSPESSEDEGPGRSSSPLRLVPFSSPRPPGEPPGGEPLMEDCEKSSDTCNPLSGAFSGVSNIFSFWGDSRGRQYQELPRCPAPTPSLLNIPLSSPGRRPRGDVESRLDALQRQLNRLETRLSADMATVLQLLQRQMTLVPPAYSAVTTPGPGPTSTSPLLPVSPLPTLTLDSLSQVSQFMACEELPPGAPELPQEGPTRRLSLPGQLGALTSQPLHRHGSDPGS
T4 sequence (P30926 22-498): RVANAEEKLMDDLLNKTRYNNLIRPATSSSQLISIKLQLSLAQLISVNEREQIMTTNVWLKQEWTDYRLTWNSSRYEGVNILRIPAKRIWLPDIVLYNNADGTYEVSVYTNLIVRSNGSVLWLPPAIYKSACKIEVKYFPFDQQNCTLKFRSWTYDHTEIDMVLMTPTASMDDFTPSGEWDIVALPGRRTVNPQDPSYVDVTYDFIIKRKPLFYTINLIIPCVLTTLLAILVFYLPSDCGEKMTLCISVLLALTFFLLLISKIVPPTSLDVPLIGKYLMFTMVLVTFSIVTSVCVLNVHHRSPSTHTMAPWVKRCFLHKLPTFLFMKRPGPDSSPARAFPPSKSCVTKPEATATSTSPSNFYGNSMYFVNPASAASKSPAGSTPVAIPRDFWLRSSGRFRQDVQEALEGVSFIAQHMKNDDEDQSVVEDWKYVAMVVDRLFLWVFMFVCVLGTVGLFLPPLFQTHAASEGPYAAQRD
T4 sequence (P32297 32-505): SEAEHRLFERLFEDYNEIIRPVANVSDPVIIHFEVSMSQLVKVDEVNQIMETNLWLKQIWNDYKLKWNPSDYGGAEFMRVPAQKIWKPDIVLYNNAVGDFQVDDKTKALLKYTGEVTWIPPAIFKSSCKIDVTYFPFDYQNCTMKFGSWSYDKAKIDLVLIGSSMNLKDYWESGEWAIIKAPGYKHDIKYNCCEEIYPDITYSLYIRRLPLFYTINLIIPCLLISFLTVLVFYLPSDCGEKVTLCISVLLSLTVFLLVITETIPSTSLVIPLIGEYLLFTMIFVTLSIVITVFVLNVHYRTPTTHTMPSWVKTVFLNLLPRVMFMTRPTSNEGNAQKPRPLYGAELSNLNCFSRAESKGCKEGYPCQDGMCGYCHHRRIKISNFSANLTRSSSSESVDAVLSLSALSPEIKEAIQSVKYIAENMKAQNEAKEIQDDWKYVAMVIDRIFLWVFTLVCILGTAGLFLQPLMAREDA
T2 sequence (P09483 31-630): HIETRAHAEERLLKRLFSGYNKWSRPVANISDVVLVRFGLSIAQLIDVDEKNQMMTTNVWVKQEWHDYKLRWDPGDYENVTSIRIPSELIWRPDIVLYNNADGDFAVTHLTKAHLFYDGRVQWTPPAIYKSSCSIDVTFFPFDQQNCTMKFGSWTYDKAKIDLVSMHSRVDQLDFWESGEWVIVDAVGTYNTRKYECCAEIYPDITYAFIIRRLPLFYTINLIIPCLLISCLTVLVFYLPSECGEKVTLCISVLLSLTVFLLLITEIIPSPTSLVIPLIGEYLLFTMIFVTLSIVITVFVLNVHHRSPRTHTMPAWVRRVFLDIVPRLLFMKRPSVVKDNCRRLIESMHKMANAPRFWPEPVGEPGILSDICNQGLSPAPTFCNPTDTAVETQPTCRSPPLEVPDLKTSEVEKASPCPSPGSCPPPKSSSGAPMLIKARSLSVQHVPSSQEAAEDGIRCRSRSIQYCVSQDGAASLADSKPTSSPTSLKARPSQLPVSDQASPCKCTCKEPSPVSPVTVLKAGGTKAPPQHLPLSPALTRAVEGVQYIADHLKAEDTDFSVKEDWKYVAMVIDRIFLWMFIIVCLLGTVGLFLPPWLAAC
T2 sequence (P12390 25-500): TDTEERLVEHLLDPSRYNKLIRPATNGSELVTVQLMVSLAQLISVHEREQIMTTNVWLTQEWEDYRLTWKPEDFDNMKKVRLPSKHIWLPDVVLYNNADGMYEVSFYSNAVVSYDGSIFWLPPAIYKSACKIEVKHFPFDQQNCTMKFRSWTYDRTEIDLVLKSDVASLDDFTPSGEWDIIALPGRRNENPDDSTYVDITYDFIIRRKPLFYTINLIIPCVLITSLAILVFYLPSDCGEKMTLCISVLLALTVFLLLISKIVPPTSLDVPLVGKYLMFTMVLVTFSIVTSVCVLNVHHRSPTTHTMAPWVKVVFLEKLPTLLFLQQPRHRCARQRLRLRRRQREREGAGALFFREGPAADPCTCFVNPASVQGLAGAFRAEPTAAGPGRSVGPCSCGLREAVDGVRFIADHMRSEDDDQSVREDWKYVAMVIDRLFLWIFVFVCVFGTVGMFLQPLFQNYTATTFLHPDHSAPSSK
Chain of Pgp brain pump (P08183 whole entry): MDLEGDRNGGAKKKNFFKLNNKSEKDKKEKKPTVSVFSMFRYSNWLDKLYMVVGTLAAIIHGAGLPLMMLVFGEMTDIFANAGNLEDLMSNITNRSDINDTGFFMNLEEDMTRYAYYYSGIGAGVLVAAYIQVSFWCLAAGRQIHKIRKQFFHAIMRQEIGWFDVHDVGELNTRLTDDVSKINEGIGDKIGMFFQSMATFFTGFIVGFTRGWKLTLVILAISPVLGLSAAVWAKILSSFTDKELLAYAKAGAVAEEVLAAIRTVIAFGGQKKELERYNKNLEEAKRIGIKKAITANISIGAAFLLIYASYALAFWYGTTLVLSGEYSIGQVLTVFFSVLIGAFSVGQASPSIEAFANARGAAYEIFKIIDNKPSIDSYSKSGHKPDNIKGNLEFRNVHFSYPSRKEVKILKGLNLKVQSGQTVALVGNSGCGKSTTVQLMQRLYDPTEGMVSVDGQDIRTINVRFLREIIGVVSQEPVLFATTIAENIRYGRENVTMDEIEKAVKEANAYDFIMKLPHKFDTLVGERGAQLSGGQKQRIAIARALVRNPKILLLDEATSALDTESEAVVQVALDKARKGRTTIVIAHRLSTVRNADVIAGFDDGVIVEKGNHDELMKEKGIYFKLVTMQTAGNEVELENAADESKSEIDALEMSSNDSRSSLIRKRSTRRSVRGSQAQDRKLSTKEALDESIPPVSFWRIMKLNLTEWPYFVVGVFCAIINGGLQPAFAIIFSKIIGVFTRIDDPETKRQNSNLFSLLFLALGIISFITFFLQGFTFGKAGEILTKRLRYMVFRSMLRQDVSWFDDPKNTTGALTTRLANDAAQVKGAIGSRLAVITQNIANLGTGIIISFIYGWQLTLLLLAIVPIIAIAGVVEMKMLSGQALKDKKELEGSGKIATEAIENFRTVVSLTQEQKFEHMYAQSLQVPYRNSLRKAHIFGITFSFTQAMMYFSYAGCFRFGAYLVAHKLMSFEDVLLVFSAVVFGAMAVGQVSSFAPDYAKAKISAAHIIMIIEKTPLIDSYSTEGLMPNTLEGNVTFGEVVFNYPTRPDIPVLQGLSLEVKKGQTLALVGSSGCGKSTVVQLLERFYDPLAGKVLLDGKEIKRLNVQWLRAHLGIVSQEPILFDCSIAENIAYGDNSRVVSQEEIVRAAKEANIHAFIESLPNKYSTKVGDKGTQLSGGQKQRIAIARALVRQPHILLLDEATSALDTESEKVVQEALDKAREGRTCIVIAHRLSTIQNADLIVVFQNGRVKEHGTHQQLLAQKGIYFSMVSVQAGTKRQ

For `C(=C\[C@H]1CCNC1)/c1cncc(OC2CCOCC2)c1` [Compound A, (R)-3-((E)-2-(pyrrolidin-3-yl)vinyl)-5-(tetrahydropyran-4-yloxy)pyridine], the Pgp substrate result on Pgp brain pump is given as “substrate for Pgp brain pump”. Further, on hERG, half-maximal inhibition (IC50) required 84 µM. The Ki was 0.004 µM in data set [1]; over 10 µM on rat native α7 receptors; over 10 µM on rat native α7 receptors (read-out: Rat hippocampus (α7) Ki, [3H]methyllycaconitine (MLA), rat hippocampal membranes); 3.4 µM in data set [3]. Besides, the water solubility result in data set [2] was “limited water solubility”.
